Assay [1] deals with MDA-MB-231. As to the kind of experiment: Cell viability assay (MTT). The settings on record: Homo sapiens. The assay is classed as cell-based. The protocol: Cells plated at equal density were treated at 500 nM of compounds. […]
(§1) Cells plated at equal density were treated at 250 nM of 4c at 250 nM.
(§2) Data from 3 biologic replicates each with 2 technical replicates. Four parameter dose-response curves generated using GraphPad Prism are shown.
Cell viability relative to vehicle (100%) is shown.
(§3) […] Using CellTiter 96 Non-Radioactive Cell Proliferation Assay (Promega, Corp.) according to manufactures' instructions, formazan was used as an indicator of viable cells at an absorbance 570 nm in a Tecan Microplate Reader M100. Data was calculated as fold change from vehicle and fitted using the 4′parameter logic nonlinear regression model in GraphPad Prism software. (n=3 biologic replicates: with 3 technical replicates each).
A range of compounds were tested by MTT assays for cell viability in MDA-MB-231 triple negative breast cancer (TNBC) cells and MDA-MB-435 HER2++ cancer cells.

The test system of assay [2] is MDA-MB-435. As to the kind of experiment: Cell viability assay (MTT). The format is cell-based, human. The protocol: (§4) Cells plated at equal density were treated at 500 nM of compounds. After 72 hours, cell viability was measured by a MTT assay. n=3; * p<0.05, ** p<0.01, *** p<0.001.
as §1, §2
[…]. GI50 was calculated using Graph pad Prism.
as §3
A range of compounds were tested by MTT assays for cell viability in MDA-MB-231 triple negative breast cancer (TNBC) cells and MDA-MB-435 HER2++ cancer cells. […].

Assay [3] has as its system Panc-1. Briefly: Cell viability assay (MTT). The assay is classed as cell-based. The settings on record: Homo sapiens, 120 hours, 0-1000 nM. The protocol: as §3
The subject of assay [4] is Panc-1. Briefly: Wound healing assay. The format is cell-based. The conditions noted are these: Homo sapiens, 24 hr, read-out: inhibition of Panc-1 cell migration. As for the experimental part: (§5) Mircrographs were digitally acquired at 0, 12, and 24 hours and the area of the wound quantified relative to the distance at time 0. n=3.
Panc-1 cells plated at equal density were subjected to a scratch in the center and treated with 4c at 0, 150 nM, 250 nM, or 500 nM. Mircrographs were digitally acquired at 0, 12, and 24 hours and the area of the wound quantified relative to the distance at time 0. n=3.

Assay [5] has as its system RAW264.7 macrophage cell line. Briefly: Wound healing assay. The assay is classed as cell-based, murine. The conditions noted are these: Mus musculus, read-out: inhibition of wound closure, RAW264.7. As for the experimental part:
as §5
Murine macrophage cell line, RAW264.7, plated at equal density were subjected to a scratch in the center and treated with 4c at 0, 150 nM, 250 nM, or 500 nM. Mircrographs were digitally acquired at 0, 12, and 24 hours and the area of the wound quantified relative to the distance at time 0. n=3.

For the next assay, the system named is MCF-7. Briefly: Initial screening, SRB assay GI50. The assay is classed as cell-based. The conditions noted are these: Homo sapiens, MCF7, 48 hrs. The protocol: (§6) For initial screening, the GIso of compounds 4a-4h in the cell lines MDA-MB-231, MDA-MB-435 and MCF-7 was determined via the SRB-assay for 48 hrs as follows:
(§7) A stock solution of compounds was prepared at 50 mM in 100% DMSO. For cells preparation, a flask of 75 cm^2 or 25 cm^2 were used for 2.6×10^5 cells/mL or 1.44×10^5 cells/mL, respectively, with an 80-90% of confluence. Cells were washed with PBS and trypsinized. The concentration of cells was determined using a 1:2 dilutions with Trypan Blue and a hemocytometer. After cell count, the concentration was adjusted to have a 7.0-10.0×10^4 cells/mL. Approximately 100 μL of cells suspension, compounds, control positive and control negative were added in triplicates to a 96 well plate. Positive control used was doxorubicin, and the negative control was DMSO 0.1%. All compounds (4a-h) at 50, 25, 12.5, 6.3, and 1.6 μM were incubated with cells at 37° C. for 48 hrs. For fixation, cold TCA 50% was used and incubated at 4° C. for 1 h. Wells were washed and dried prior to tincture with 100 μL of SRB 0.4%. To remove excess of SRB, acetic acid was used. For analysis, TRIS-BASE Solution (pH=10.5) was used and shaken prior to reading using an ELISA reader at 540 nm and the software SoftMax Pro 4.8. For each compound, 50% growth inhibition (GI50) was calculated from Sigmoidal dose-response curves (variable-slope) that were generated with data obtained from experiments carried out in triplicates (GI50 values were generated with GraphPad Prism V. 6.02, GraphPad Software, Inc.).
In general terms: Sulforhodamine B stains cellular protein and so reports cell mass.

In assay [6] the test system is MDA-MB-231. Briefly: Initial screening, SRB assay GI50. The conditions noted are these: Homo sapiens, 48 hrs. The format is cell-based. The protocol:
as §6, §7

For assay [7], the system named is MDA-MB-435. Briefly: Initial screening, SRB assay GI50. The format is cell-based. The conditions noted are these: Homo sapiens, 48 hrs, read-out: MDA-MB435 GI50. As for the experimental part: as §6, §7
Assay [8] concerns MDA-MB-231. Briefly: Initial screening, inhibition of migration (wound gap). The conditions noted are these: Homo sapiens. The assay is classed as cell-based. As for the experimental part:
In addition, the inhibition of migration of MDA-MB-231 was determined via the following procedure:
Prior to assays, cells were grown until 80-90% confluence was observed. We used a 75 cm^2 flask for 2.6×10^5 cells/mL in 10 mL and for a 25 cm^2 flask 1.44×10^5 cells/mL in 5 mL. The cells were washed with PBS to remove all traces of FBS. We added 2 mL for a 25 cm^2 flasks or 4 mL for a 75 cm^2 flasks trypsin, and incubated 5-10 min at 37° C. At the end of the incubation time, cells were re-suspended and counted with hemocytometer using 1:2 dilutions with Trypan blue. Subsequently, cell viability was calculated. In a 12 well tissue culture plate, we used the plastic pattern to draw a fine space with a fine marker on the bottom of the plate. Cells were seeded at 1.5-2.2×10^5 cells/mL in 1 mL and incubated for 24 h. Cells were then rinsed with PBS and incubated in starving media (0.5% FBS) overnight. All controls and drugs were tested in triplicate. The negative control for each drug was prepared according to the drug's DMSO concentration. […] The wound was made using a sterile pipette tip of 200 μL. Cells were then rinsed very gently with media without FBS and media with negative controls was added. After a 24 h incubation, the gap distance was evaluated using the software Lumera Infinity Analyze 6.4.0. Pictures were taken at 0, 8, 12 and 24 h using a 10× objective in an Inverted Laboratory Microscope Leica DM IL LED, and an Infinity1-3 3.1 Megapixel USB 2.0 camera CMOS. The percentage of migration was calculated using the following formula: […]

In assay [9] the test system is MDA-MB-468. Briefly: Cell viability assay (MTT). The format is cell-based. The conditions noted are these: 500 nM, 72 hours. The protocol:
as §4
Equal number of cells were seeded in a 24 well plate and incubated with vehicle or compounds according to this disclosure at concentrations between 1 and 0.001 nM for 72 and 120 hrs. Using CellTiter 96 Non-Radioactive Cell Proliferation Assay (Promega, Corp.) according to manufactures' instructions, formazan was used as an indicator of viable cells at an absorbance 570 nm in a Tecan Microplate Reader M100. Data was calculated as fold change from vehicle and fitted using the 4′parameter logic nonlinear regression model in GraphPad Prism software. (n=3 biologic replicates: with 3 technical replicates each).

Assay [10] relates to MDA-MB-231. As to the kind of experiment: Apoptosis assay, caspase 3/7 activity. The assay is classed as cell-based, human. The conditions noted are these: 500 nM, 48 hours. As for the experimental part:
(§8) Cells plated at equal density were treated at 500 nM of compounds. After 48 hours, caspase 3/7 activity was measured by luminescence. n=3; * p<0.05, ** p<0.01.
(§9) Equal number of cells were seeded incubated with vehicle or compounds according to this disclosure at 250 or 500 nM for 48 hrs. Apoptosis was measured using a Caspase-Glo3/7 Luminescence Assay Kit as per manufacturer's instructions (Promega, Corp.). Briefly, Caspase-3/7 Glo reagent was added and incubated at room temperature for 60 min and Caspase-3/7 activities were determined by detecting luminescence using Tecan Microplate Reader M100. (n=3 biologic replicates: with 3 technical replicates each).

For assay [11], the system named is MDA-MB-435. Briefly: Apoptosis assay, caspase 3/7 activity. The assay is classed as cell-based, human. The conditions noted are these: 500 nM, 48 hours. The protocol: as §8, §9
Assay [12] has as its system MDA-MB-468. Briefly: Apoptosis assay, caspase 3/7 activity. The conditions noted are these: 500 nM, 48 hours. The format is cell-based. The protocol:
as §8, §9

A further assay concerns the target T1, Vav2 binding to Rac1 (Homo sapiens, UniProt P63000, G15A).
T1 construct: purchased Cell Biolabs, San Diego; CA; host or cells: Vav2 from MDA-MB-231 cell lysate
Briefly: Rac1 GEF assay, Rac1(G15A) pulldown. The settings on record: 8 μM, MDA-MB-231 lysates. The protocol: GST-Rac1 (G15A) beads were pre-incubated with vehicle (0.1% DMSO), or 8 μM EHop-016, or 250 nM Compound 4c for 1 hour followed by incubation with MDA-MB-231 cell lysates (equal total protein). Representative Western blot for Rac1(G15A) or pulldowns immunostained for Vav2 is shown (n=3).
MDA-MB-231 cells in culture medium were lysed in 1% Triton X-100, 20 mM HEPES, pH 7.4, 150 mM NaCl, 5 mm MgCl2, and protease inhibitors and processed. Equal amounts of protein from cleared lysates were incubated for 1 h at 4° C. with glutathione-agarose beads conjugated to GST-Rac1(G15A) nucleotide-free mutant (Cell Biolabs, San Diego. CA) that were preincubated (for 1 h) with vehicle or 8 μm EHop-016 or 0.25 μM Compound 4c. The beads were washed, and the lysates and pull-downs were immunoblotted for Tiam-1, Trio, Ect2, p-REX, or Vav2.

Regarding `CCn1c2ccccc2c2cc(-n3nncc3-c3ccccc3)ccc21` (racemic) [MBQ-167, reference compound], the inhibition at […] with MDA-MB-231 [1] (MDA-MB-231, 250 nM for 48 hours (footnote a; title says 500 nM), read-out: % growth inhibition MDA-MB-231) worked out at 36%; in the assay on Panc-1 [4] (250 nM), 40%; in assay [5] (250 nM) it was 30%. Also, the cytotoxicity at […] in the assay on MDA-MB-231 [1] (250 nM, 48h, text prints MDA-MB-435 TNBC, read-out: inhibition of cell viability) is about 40%. Besides, the GI50 (usually the concentration giving 50% growth inhibition) with MDA-MB-435 [2] (Homo sapiens, MDA-MB-435, 72 h, read-out: GI50 MDA-MB-435) was found to be 145 nM; in the assay on Panc-1 [3], 155 nM. Also, the inhibition at 0.5 µM with Panc-1 [4] (500 nM) is 50%. In addition, the inhibition at 0.15 µM in assay [5] (150 nM) was determined as 30%.

Take `CCn1c2ccccc2c2cc(-n3nnc(C(O)c4cccnc4)c3-c3ccccc3)ccc21` (centres unmarked) [Compound 4b, (1-(9-ethyl-9H-carbazol-3-yl)-5-phenyl-1H-1,2,3-triazol-4-yl) (pyridin-3-yl) methanol]: the values for the GI50 with MCF-7, in the assay on MDA-MB-231 [6] and in the assay with MDA-MB-435 [7] were 40 nM, 8000 nM and 80 nM, respectively. The inhibition at 0.5 µM in the assay with MDA-MB-231 [8] (at 0.5 μM, read-out: Inh. of migration (converted)) is 25.2%. The inhibition at 1.6 µM with MDA-MB-231 [8] (at 1.6 μM, read-out: Inh. of migration) amounted to 61.4 ± 9.08%. Besides, the “effect on cell viability, MDA-MB-435” value in the assay with MDA-MB-435 [2] (500 nM) was “inhibited cell viability”. Besides, in the assay with MDA-MB-435 [2] (Homo sapiens, MDA-MB-435, 500 nM, 72 hours, read-out: decrease in cell viability, MDA-MB-435), the cytotoxicity at 0.5 µM was about 80%. In addition, in the assay with MDA-MB-468 [9], the “effect on cell viability, MDA-MB-468” value is given as “inhibited cell viability”. Besides, in the assay with MDA-MB-231 [10], the “Caspase 3/7 activity compared to the vehicle, MDA-MB-231” value was “increased apoptosis”. The “Caspase 3/7 activity compared to the vehicle, MDA-MB-435” value with MDA-MB-435 [11] is listed as “increased apoptosis”. In addition, the “Caspase 3/7 activity, MDA-MB-468” value in the assay on MDA-MB-468 [12] is on record as “significantly increased”.

As to `CCn1c2ccccc2c2cc(Nc3ccnc(NCCCN4CCOCC4)n3)ccc21` [EHop-016, reference compound], at Vav2 binding to Rac1, the “inhibition of Vav2 binding to Rac1” value is about 80%.
